IC50 and Activity data for ten molecules are collected here from ChEMBL document CHEMBL2203207, “Inhibition of monoamine oxidase by derivatives of piperine, an alkaloid from the pepper plant Piper nigrum, for possible use in Parkinson's disease” (Bioorg Med Chem Lett, 2012).

The term pIC50 denotes the IC50 on a negative log10 scale, so that one unit is a factor of ten.

pIC50: −log10 of the molar value.

Series [1] concerns the target T1, Amine oxidase [flavin-containing] A (Homo sapiens, UniProt P21397).
T1 sequence (P21397 whole entry): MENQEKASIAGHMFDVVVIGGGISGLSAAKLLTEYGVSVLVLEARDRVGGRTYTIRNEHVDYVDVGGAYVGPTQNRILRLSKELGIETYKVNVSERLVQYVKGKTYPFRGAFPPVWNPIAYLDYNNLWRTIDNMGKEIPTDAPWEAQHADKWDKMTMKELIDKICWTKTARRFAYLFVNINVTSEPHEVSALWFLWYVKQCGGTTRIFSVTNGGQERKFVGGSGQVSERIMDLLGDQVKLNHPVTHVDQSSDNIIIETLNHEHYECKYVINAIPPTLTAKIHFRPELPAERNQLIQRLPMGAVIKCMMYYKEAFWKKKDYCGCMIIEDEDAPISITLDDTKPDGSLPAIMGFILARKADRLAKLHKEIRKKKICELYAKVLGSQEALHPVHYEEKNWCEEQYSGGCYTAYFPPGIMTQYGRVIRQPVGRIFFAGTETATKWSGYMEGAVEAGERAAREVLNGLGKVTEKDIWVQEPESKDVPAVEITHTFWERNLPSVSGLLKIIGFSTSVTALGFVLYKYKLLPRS
Description: Inhibition of MAO-A assessed as inhibition of kyneuramine conversion to 4-hydroxyquinoline after 20 mins by fluorescence assay.

Series [2] deals with T2, Amine oxidase [flavin-containing] B (Homo sapiens, UniProt P27338).
T2 sequence (P27338 whole entry): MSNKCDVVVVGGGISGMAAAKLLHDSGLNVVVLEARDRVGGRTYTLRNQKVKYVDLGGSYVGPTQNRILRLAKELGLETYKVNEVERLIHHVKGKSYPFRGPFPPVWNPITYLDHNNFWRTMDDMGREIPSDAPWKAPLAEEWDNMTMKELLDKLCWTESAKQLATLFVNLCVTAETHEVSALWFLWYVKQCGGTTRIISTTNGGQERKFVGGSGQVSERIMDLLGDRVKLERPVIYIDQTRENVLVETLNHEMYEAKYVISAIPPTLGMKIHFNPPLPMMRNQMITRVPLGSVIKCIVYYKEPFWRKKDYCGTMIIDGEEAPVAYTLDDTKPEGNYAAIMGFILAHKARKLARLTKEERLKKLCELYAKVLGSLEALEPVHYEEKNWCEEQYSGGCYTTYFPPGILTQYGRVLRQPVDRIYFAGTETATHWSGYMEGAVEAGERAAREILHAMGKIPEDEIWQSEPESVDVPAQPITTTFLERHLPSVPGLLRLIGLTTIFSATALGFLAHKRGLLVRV
Put plainly: Inhibition of MAO-B assessed as inhibition of kyneuramine conversion to 4-hydroxyquinoline after 20 mins by fluorescence assay.

Series [3] concerns the target T3, Albumin (Bos taurus, UniProt P02769). Description: Binding affinity to bovine serum albumin at 16 uM by fluorescence assay. The series is classed as ADME. The note with it: cattle, isolated protein.
Series [4] deals with T3, Albumin. Description: Binding affinity to bovine serum albumin at 8.9 uM by fluorescence assay. It is filed as ADME. To be noted: cattle, isolated protein.

T3 sequence (P02769 whole entry): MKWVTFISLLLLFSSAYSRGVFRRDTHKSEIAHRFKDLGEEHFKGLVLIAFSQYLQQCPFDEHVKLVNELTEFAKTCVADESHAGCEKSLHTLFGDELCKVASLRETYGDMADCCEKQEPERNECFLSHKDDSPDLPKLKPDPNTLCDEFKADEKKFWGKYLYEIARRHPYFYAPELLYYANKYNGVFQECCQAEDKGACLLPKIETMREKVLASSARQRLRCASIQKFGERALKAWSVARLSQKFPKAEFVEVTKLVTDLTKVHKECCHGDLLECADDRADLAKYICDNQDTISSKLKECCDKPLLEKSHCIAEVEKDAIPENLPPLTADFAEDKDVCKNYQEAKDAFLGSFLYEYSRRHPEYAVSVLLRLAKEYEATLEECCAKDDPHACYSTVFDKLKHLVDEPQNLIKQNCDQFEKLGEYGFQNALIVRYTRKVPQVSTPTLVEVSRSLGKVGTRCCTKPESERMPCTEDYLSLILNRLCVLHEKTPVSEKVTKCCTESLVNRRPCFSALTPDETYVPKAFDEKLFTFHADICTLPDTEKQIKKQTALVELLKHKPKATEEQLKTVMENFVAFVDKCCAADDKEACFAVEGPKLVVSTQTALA

Regarding `O=C(/C=C/c1ccc2c(c1)OCO2)N1CCOCC1`, the figures for the pIC50 in series [1] and in series [2] were below 4.00 and 5.19, respectively.

Regarding `S=C(c1ccc2c(c1)OCO2)N1CCCCC1`, the pIC50 is below 4.00 in series [1] and 4.81 in series [2].

Turning to `O=C(/C=C/c1ccc2c(c1)OCO2)NC1CCCC1`, the pIC50 in series [1] is below 4.00; in series [2], 5.95.

`O=C(CCN1CCCCC1)c1ccc2c(c1)OCO2`: the pIC50 in series [1] is below 4.00; in series [2], 5.46.

Regarding `O=C(CN1CCCCC1)c1ccc2c(c1)OCO2`, the pIC50 was below 4.00 in series [1] and 5.50 in series [2].

Take `O=C(/C=C/c1ccc2c(c1)OCO2)NC1CCCCC1`: the figures for the pIC50 in series [1] and in series [2] were below 4.00 and 6.18, respectively.

On to `CC1CCN(C(=O)/C=C/c2ccc3c(c2)OCO3)CC1`, for which the results for the pIC50 in series [1] and in series [2] were below 4.00 and 6.30, respectively. The molecule further registered an Activity in series [3] of 50%.

Turning to `O=C(/C=C/c1ccc2c(c1)OCO2)N1CCCC1`, the pIC50 in series [1] is below 4.00; in series [2] it was 5.31.

On to `O=C(c1ccc2c(c1)OCO2)N1CCCCCC1`, for which the pIC50 in series [1] and in series [2] was below 4.00 in each case.

Turning to `O=C(/C=C/C=C/c1ccc2c(c1)OCO2)N1CCCCC1` [PIPERINE], the figures for the pIC50 in series [1] and in series [2] were 4.23 and 6.32, respectively. For the same molecule, the Activity in series [4] was 50%.
